Measured values taken from article PMC5218480 (PLoS ONE, 2017).

Tested on: MV-4-11 cells
Assay: Gene expression microarray analysis (Affymetrix PrimeView) and GSEA
Assay type: cell-based, human
Set-up: RFU PODN (11730768_x_at) / Fold change /veh PODN (11730768_x_at) / RFU LINC00158 (11744669_a_at) / Fold change /veh LINC00158 (11744669_a_at) / RFU DUSP10 (11751237_a_at) / Fold change /veh DUSP10 (11751237_a_at) / RFU ID3 (11757404_x_at) / Fold change /veh ID3 (11757404_x_at) / RFU PLEKHG5 (11737974_s_at) / Fold change /veh PLEKHG5 (11737974_s_at) / RFU LRRC4B (11730491_at) / Fold change /veh LRRC4B (11730491_at) / RFU GIMAP4 (11747438_a_at) / Fold change /veh GIMAP4 (11747438_a_at) / RFU KRT8 (11758183_x_at) / Fold change /veh KRT8 (11758183_x_at) / RFU CNN1 (11734310_a_at) / Fold change /veh CNN1 (11734310_a_at) / RFU VPS37D (11726825_at) / Fold change /veh VPS37D (11726825_at) / RFU C10orf10 (11716522_x_at) / Fold change /veh C10orf10 (11716522_x_at) / RFU KIR2DL2 /// KIR2DL4 /// KIR2DL5A /// KIR2DL5B /// KIR2DS1 /// KIR2DS2 /// KIR2DS3 /// KIR2DS4 /// KIR3DL3 /// KIR3DL3 /// KIR3DS1 (11738374_at) / Fold change /veh KIR2DL2 /// KIR2DL4 /// KIR2DL5A /// KIR2DL5B /// KIR2DS1 /// KIR2DS2 /// KIR2DS3 /// KIR2DS4 /// KIR3DL3 /// KIR3DL3 /// KIR3DS1 (11738374_at) / RFU C1QL1 (11718748_at) / Fold change /veh C1QL1 (11718748_at) / RFU TMPRSS4 (11747572_a_at) / Fold change /veh TMPRSS4 (11747572_a_at) / RFU HAMP (11756126_x_at) / Fold change /veh HAMP (11756126_x_at) / RFU RNFT2 (11725882_a_at) / Fold change /veh RNFT2 (11725882_a_at) / RFU NR4A2 (11747474_a_at) / Fold change /veh NR4A2 (11747474_a_at) / RFU ABCC12 (11746883_a_at) / Fold change /veh ABCC12 (11746883_a_at) / RFU TMEM136 (11760407_x_at) / Fold change /veh TMEM136 (11760407_x_at) / RFU CLDN22 /// WWC2 (11732394_at) / Fold change /veh CLDN22 /// WWC2 (11732394_at) / RFU HLA-DPB1 (11760878_x_at) / Fold change /veh HLA-DPB1 (11760878_x_at) / RFU SPINT1 (11716480_a_at) / Fold change /veh SPINT1 (11716480_a_at) / RFU GAP43 (11754022_s_at) / Fold change /veh GAP43 (11754022_s_at) / RFU A4GNT (11735810_at) / Fold change /veh A4GNT (11735810_at) / RFU PRB3 (11715151_x_at) / Fold change /veh PRB3 (11715151_x_at) / RFU TUBB4B (11761932_at) / Fold change /veh TUBB4B (11761932_at) / RFU CAPN14 (11732068_a_at) / Fold change /veh CAPN14 (11732068_a_at) / RFU TMCC2 (11721928_a_at) / Fold change /veh TMCC2 (11721928_a_at) / RFU IRGQ (11745062_a_at) / Fold change /veh IRGQ (11745062_a_at) / RFU FAM174B (11720279_a_at) / Fold change /veh FAM174B (11720279_a_at) / RFU TMPRSS4 (11748680_a_at) / Fold change /veh TMPRSS4 (11748680_a_at) / RFU FAM212B (11763350_a_at) / Fold change /veh FAM212B (11763350_a_at) / RFU PLEKHG5 (11743358_a_at) / Fold change /veh PLEKHG5 (11743358_a_at) / RFU ZSCAN30 (11745921_a_at) / Fold change /veh ZSCAN30 (11745921_a_at) / RFU CMKLR1 (11741424_a_at) / Fold change /veh CMKLR1 (11741424_a_at) / RFU LOC101060620 /// MAPK8IP1 (11723275_at) / Fold change /veh LOC101060620 /// MAPK8IP1 (11723275_at) / RFU SPTSSB (11747773_x_at) / Fold change /veh SPTSSB (11747773_x_at) / RFU PRSS12 (11739890_at) / Fold change /veh PRSS12 (11739890_at) / RFU BIN1 (11741810_x_at) / Fold change /veh BIN1 (11741810_x_at) / RFU WNT11 (11732464_a_at) / Fold change /veh WNT11 (11732464_a_at) / RFU C10orf10 (11716521_a_at) / Fold change /veh C10orf10 (11716521_a_at) / RFU C5orf56 (11738089_at) / Fold change /veh C5orf56 (11738089_at) / RFU CYB561 (11721691_x_at) / Fold change /veh CYB561 (11721691_x_at) / RFU ANKRD19P (11752326_a_at) / Fold change /veh ANKRD19P (11752326_a_at) / RFU OR2T12 /// OR2T33 /// OR2T8 (11738714_s_at) / Fold change /veh OR2T12 /// OR2T33 /// OR2T8 (11738714_s_at) / RFU VCAN (11748164_a_at) / Fold change /veh VCAN (11748164_a_at) / RFU JSRP1 (11732532_at) / Fold change /veh JSRP1 (11732532_at) / RFU KRTAP10-11 (11738290_x_at) / Fold change /veh KRTAP10-11 (11738290_x_at) / RFU MYO3A (11730013_a_at) / Fold change /veh MYO3A (11730013_a_at) / RFU EBF3 (11725865_a_at) / Fold change /veh EBF3 (11725865_a_at) / RFU CAMK2N1 (11719241_x_at) / Fold change /veh CAMK2N1 (11719241_x_at) / RFU C5orf56 (11738088_a_at) / Fold change /veh C5orf56 (11738088_a_at) / RFU OLFML3 (11715873_a_at) / Fold change /veh OLFML3 (11715873_a_at) / RFU LOC100653217 /// NTM (11731650_a_at) / Fold change /veh LOC100653217 /// NTM (11731650_a_at) / RFU MAPK11 (11762145_a_at) / Fold change /veh MAPK11 (11762145_a_at) / RFU FIZ1 (11724087_x_at) / Fold change /veh FIZ1 (11724087_x_at) / RFU OASL (11726364_x_at) / Fold change /veh OASL (11726364_x_at) / RFU SOX15 (11748057_x_at) / Fold change /veh SOX15 (11748057_x_at) / RFU CD79A (11719716_a_at) / Fold change /veh CD79A (11719716_a_at) / RFU HIST1H1D (11736915_at) / Fold change /veh HIST1H1D (11736915_at) / RFU CASKIN2 (11723855_a_at) / Fold change /veh CASKIN2 (11723855_a_at) / RFU LOC730098 (11760151_x_at) / Fold change /veh LOC730098 (11760151_x_at) / RFU OR4N2 (11742367_at) / Fold change /veh OR4N2 (11742367_at) / RFU PRRT2 (11749266_a_at) / Fold change /veh PRRT2 (11749266_a_at) / RFU SNX32 (11753110_a_at) / Fold change /veh SNX32 (11753110_a_at) / RFU CDHR5 (11726645_a_at) / Fold change /veh CDHR5 (11726645_a_at) / RFU RCAN1 (11760418_a_at) / Fold change /veh RCAN1 (11760418_a_at) / RFU FAM167A (11723789_a_at) / Fold change /veh FAM167A (11723789_a_at) / RFU FAM26E (11764081_at) / Fold change /veh FAM26E (11764081_at) / RFU ISYNA1 (11749810_s_at) / Fold change /veh ISYNA1 (11749810_s_at) / RFU ACY1 (11761880_at) / Fold change /veh ACY1 (11761880_at) / RFU 11764098_at / Fold change /veh 11764098_at / RFU SAMD14 (11745864_x_at) / Fold change /veh SAMD14 (11745864_x_at) / RFU NPB (11741838_a_at) / Fold change /veh NPB (11741838_a_at) / RFU TMPRSS6 (11731388_a_at) / Fold change /veh TMPRSS6 (11731388_a_at) / RFU KRTAP10-2 (11738614_at) / Fold change /veh KRTAP10-2 (11738614_at) / RFU ARHGAP8 /// PRR5-ARHGAP8 (11727945_x_at) / Fold change /veh ARHGAP8 /// PRR5-ARHGAP8 (11727945_x_at) / RFU KRTAP5-7 /// NADSYN1 (11734609_at) / Fold change /veh KRTAP5-7 /// NADSYN1 (11734609_at) / RFU RASL12 (11751679_a_at) / Fold change /veh RASL12 (11751679_a_at) / RFU CDKN2B (11736163_a_at) / Fold change /veh CDKN2B (11736163_a_at) / RFU PRF1 (11729649_at) / Fold change /veh PRF1 (11729649_at) / RFU, ZNF638 /// ZNF638-IT1 / Fold change vs veh, ZNF638 /// ZNF638-IT1 / RFU, PANK3 / Fold change vs veh, PANK3 / RFU, SH3YL1 / Fold change vs veh, SH3YL1 / RFU, ZEB2 / Fold change vs veh, ZEB2 / RFU, NRIP1 / Fold change vs veh, NRIP1 / RFU, PTTG1IP / Fold change vs veh, PTTG1IP / RFU, CAPN2 / Fold change vs veh, CAPN2 / RFU, MED14 / Fold change vs veh, MED14 / RFU, SNORA58 / Fold change vs veh, SNORA58 / RFU, C1orf63 / Fold change vs veh, C1orf63 / RFU, LRRFIP1 / Fold change vs veh, LRRFIP1 / RFU, NDUFAF7 / Fold change vs veh, NDUFAF7 / RFU, SLC12A2 / Fold change vs veh, SLC12A2 / RFU, IBTK / Fold change vs veh, IBTK / RFU, ESF1 / Fold change vs veh, ESF1 / Fold change vs veh, TMEM50B / RFU, TAOK1 / Fold change vs veh, TAOK1 / RFU, ACBD3 / Fold change vs veh, ACBD3 / RFU, TMA16 / Fold change vs veh, TMA16 / RFU, RWDD3 / Fold change vs veh, RWDD3 / RFU, BCAT1 / Fold change vs veh, BCAT1 / RFU, EDEM3 / Fold change vs veh, EDEM3 / RFU, TMEM33 / Fold change vs veh, TMEM33 / RFU, WDR75 / Fold change vs veh, WDR75 / RFU, AHCTF1 / Fold change vs veh, AHCTF1 / RFU, TFRC / Fold change vs veh, TFRC / RFU, ZDHHC17 / Fold change vs veh, ZDHHC17 / RFU, NOM1 / Fold change vs veh, NOM1 / RFU, ARL8B / Fold change vs veh, ARL8B / RFU, ZBTB11 / Fold change vs veh, ZBTB11 / RFU, TAMM41 / Fold change vs veh, TAMM41 / RFU, KIAA1704 /// LOC100996395 / Fold change vs veh, KIAA1704 /// LOC100996395 / RFU, ING1 / Fold change vs veh, ING1 / RFU, TRMT61B / Fold change vs veh, TRMT61B / RFU, FUBP3 / Fold change vs veh, FUBP3 / RFU, TP53 / Fold change vs veh, TP53 / RFU, TNKS2 / Fold change vs veh, TNKS2 / RFU, ZFP14 / Fold change vs veh, ZFP14 / RFU, ACTR2 / Fold change vs veh, ACTR2 / RFU, PPP3R1 / Fold change vs veh, PPP3R1 / RFU, PIK3R1 / Fold change vs veh, PIK3R1 / RFU, HNRNPA1 / Fold change vs veh, HNRNPA1 / RFU, RNF170 / Fold change vs veh, RNF170 / RFU, ZNF28 / Fold change vs veh, ZNF28 / RFU, RNGTT / Fold change vs veh, RNGTT / RFU, OGT / Fold change vs veh, OGT / RFU, BRD1 / Fold change vs veh, BRD1 / RFU, MARS / Fold change vs veh, MARS / RFU, ZNF655 / Fold change vs veh, ZNF655 / RFU, FAHD1 / Fold change vs veh, FAHD1 / RFU, BDP1 / Fold change vs veh, BDP1 / RFU, LRRCC1 / Fold change vs veh, LRRCC1 / RFU, ARID1A / Fold change vs veh, ARID1A / RFU, ZNF146 / Fold change vs veh, ZNF146 / RFU, ZNF330 / Fold change vs veh, ZNF330 / RFU, GPN3 / Fold change vs veh, GPN3 / RFU, C9orf123 / Fold change vs veh, C9orf123 / RFU, N4BP2L2 / Fold change vs veh, N4BP2L2 / RFU, ARFIP1 / Fold change vs veh, ARFIP1 / RFU, FAM179B / Fold change vs veh, FAM179B / RFU, BCL10 / Fold change vs veh, BCL10 / RFU, UHRF1BP1L / Fold change vs veh, UHRF1BP1L / RFU, BET1 / Fold change vs veh, BET1 / RFU, CNOT2 / Fold change vs veh, CNOT2 / RFU, ZNF268 / Fold change vs veh, ZNF268 / Fold change vs veh, ZNF507 / RFU, DGCR2 / Fold change vs veh, DGCR2 / RFU, WDSUB1 / Fold change vs veh, WDSUB1 / Fold change vs veh, HSP90B1 /// MIR3652 / RFU, ADSS / Fold change vs veh, ADSS / RFU, GK / Fold change vs veh, GK / RFU, ZNF148 / Fold change vs veh, ZNF148 / RFU, TAF9 / Fold change vs veh, TAF9 / RFU, SLC1A5 / Fold change vs veh, SLC1A5 / RFU, SLMO2 / Fold change vs veh, SLMO2 / RFU, ABCC4 / Fold change vs veh, ABCC4 / RFU, LOC101060439 /// RAP1B / Fold change vs veh, LOC101060439 /// RAP1B / RFU, RFX7 / Fold change vs veh, RFX7 / RFU, GTPBP10 / Fold change vs veh, GTPBP10 / RFU, CNEP1R1 / Fold change vs veh, CNEP1R1 / RFU, BIVM-ERCC5 /// ERCC5 / Fold change vs veh, BIVM-ERCC5 /// ERCC5 / RFU, ILF3 / Fold change vs veh, ILF3 / RFU 11762660_at / Fold change /veh 11762660_at / RFU VCAN (11757783_s_at) / Fold change /veh VCAN (11757783_s_at) / RFU DDX43 (11728927_at) / Fold change /veh DDX43 (11728927_at) / RFU KRT8 (11758188_x_at) / Fold change /veh KRT8 (11758188_x_at) / RFU NKD1 (11759106_at) / Fold change /veh NKD1 (11759106_at) / RFU SRD5A1 (11742802_a_at) / Fold change /veh SRD5A1 (11742802_a_at) / RFU TPSAB1 /// TPSB2 (11721975_s_at) / Fold change /veh TPSAB1 /// TPSB2 (11721975_s_at) / RFU GSTM3 (11746129_a_at) / Fold change /veh GSTM3 (11746129_a_at) / RFU IL23R (11737362_x_at) / Fold change /veh IL23R (11737362_x_at) / RFU TMEM51 (11727254_a_at) / Fold change /veh TMEM51 (11727254_a_at) / RFU PIWIL2 (11732686_x_at) / Fold change /veh PIWIL2 (11732686_x_at) / RFU ORM1 (11744905_x_at) / Fold change /veh ORM1 (11744905_x_at) / RFU CCDC152 (11743942_at) / Fold change /veh CCDC152 (11743942_at) / RFU ECM1 (11717891_a_at) / Fold change /veh ECM1 (11717891_a_at) / RFU IL23R (11748794_a_at) / Fold change /veh IL23R (11748794_a_at) / RFU TNFAIP8L3 (11732012_x_at) / Fold change /veh TNFAIP8L3 (11732012_x_at) / RFU MBOAT4 (11741988_at) / Fold change /veh MBOAT4 (11741988_at) / RFU 11764193_at / Fold change /veh 11764193_at / RFU TMEM53 (11763286_at) / Fold change /veh TMEM53 (11763286_at) / RFU MAGEB2 (11727129_at) / Fold change /veh MAGEB2 (11727129_at) / RFU TMEM200A (11744735_a_at) / Fold change /veh TMEM200A (11744735_a_at) / RFU CCDC152 (11751479_a_at) / Fold change /veh CCDC152 (11751479_a_at) / RFU FAM211A (11726209_a_at) / Fold change /veh FAM211A (11726209_a_at) / RFU RGS16 (11746705_a_at) / Fold change /veh RGS16 (11746705_a_at) / RFU VCAN (11755009_s_at) / Fold change /veh VCAN (11755009_s_at) / RFU RHOB (11743442_s_at) / Fold change /veh RHOB (11743442_s_at) / RFU RGS16 (11720943_a_at) / Fold change /veh RGS16 (11720943_a_at) / RFU RGS16 (11720944_at) / Fold change /veh RGS16 (11720944_at) / RFU, VPS4B / Fold change vs veh, VPS4B / RFU, CREB1 / Fold change vs veh, CREB1 / RFU, DNAJC13 / Fold change vs veh, DNAJC13 / RFU, GNAQ / Fold change vs veh, GNAQ / RFU, CDK5R1 / Fold change vs veh, CDK5R1 / RFU, ZRANB3 / Fold change vs veh, ZRANB3 / RFU, CUL4A / Fold change vs veh, CUL4A / RFU, CCNY / Fold change vs veh, CCNY / RFU, UFL1 / Fold change vs veh, UFL1 / RFU, COG3 / Fold change vs veh, COG3 / RFU, DIAPH2 / Fold change vs veh, DIAPH2 / RFU, SKA2 / Fold change vs veh, SKA2 / RFU, AFF3 / Fold change vs veh, AFF3 / RFU, LMF1 / Fold change vs veh, LMF1 / RFU, IPO11 / Fold change vs veh, IPO11 / RFU, DFFB / Fold change vs veh, DFFB / RFU, FOXP1 / Fold change vs veh, FOXP1 / RFU, CARD8 / Fold change vs veh, CARD8 / RFU, STRN3 / Fold change vs veh, STRN3 / RFU, ADK / Fold change vs veh, ADK / RFU, RASSF2 / Fold change vs veh, RASSF2 / RFU, WIPF1 / Fold change vs veh, WIPF1 / RFU, LARP1B / Fold change vs veh, LARP1B / RFU, RASA1 / Fold change vs veh, RASA1 / RFU, RB1 / Fold change vs veh, RB1 / RFU, PPFIA1 / Fold change vs veh, PPFIA1 / RFU, MAT2A / Fold change vs veh, MAT2A / RFU, CCT5 / Fold change vs veh, CCT5 / RFU, WDR92 / Fold change vs veh, WDR92 / RFU, CUX1 / Fold change vs veh, CUX1 / RFU, TTC7A / Fold change vs veh, TTC7A / RFU, TMEM135 / Fold change vs veh, TMEM135 / RFU, DEPTOR / Fold change vs veh, DEPTOR / RFU, CPM / Fold change vs veh, CPM / RFU, DNAJB6 / Fold change vs veh, DNAJB6 / RFU, CACNA2D3 / Fold change vs veh, CACNA2D3 / RFU, DTX4 / Fold change vs veh, DTX4 / RFU, TFCP2 / Fold change vs veh, TFCP2 / RFU, GMCL1 /// GMCL1P1 / Fold change vs veh, GMCL1 /// GMCL1P1 / RFU, AEBP2 / Fold change vs veh, AEBP2 / RFU, SNHG1 /// SNORD22 /// SNORD25 /// SNORD26 /// SNORD27 /// SNORD28 /// SNORD29 /// SNORD31 / Fold change vs veh, SNHG1 /// SNORD22 /// SNORD25 /// SNORD26 /// SNORD27 /// SNORD28 /// SNORD29 /// SNORD31 / Fold change (Aza/veh), C12orf56 (ProbeSet 11735607_a_at) / Fold change (ACY-1035/veh), C12orf56 (ProbeSet 11735607_a_at) / Fold change (Aza/veh), FGFR1OP (ProbeSet 11751329_s_at) / Fold change (ACY-1035/veh), FGFR1OP (ProbeSet 11751329_s_at) / Fold change (Aza/veh), VPS36 (ProbeSet 11739960_a_at) / Fold change (ACY-1035/veh), VPS36 (ProbeSet 11739960_a_at) / RFU SYPL1 (11715823_x_at) / Fold change /veh SYPL1 (11715823_x_at) / RFU IGFBP7 (11715501_s_at) / Fold change /veh IGFBP7 (11715501_s_at) / RFU REEP3 (11722064_at) / Fold change /veh REEP3 (11722064_at) / RFU IGLL1 (11728026_x_at) / Fold change /veh IGLL1 (11728026_x_at): dose or concentration left out as unconfirmed
Settings: MV-4-11 cells, 48 hours

`Nc1ccc(-c2cccs2)cc1NC(=O)c1ccc2c(c1)cc(C1CC1)n2CCN1CCOCC1` [ACY-1035] was tested. Which “Fold change /veh SPINT1 (11716480_a_at)” value did it give?
Its value is 1.05.
